The target in one test is T1, PSD-95 PDZ1 (Homo sapiens, UniProt P78352).
T1 construct: PSD-95 PDZ1 (aa 61–151); made in house; host or cells: E. coli One Shot BL21 Star (DE3)
Briefly: SPR steady-state binding to immobilized PSD-95 PDZ1. The source says: (§1) To confirm the affinities measured by FP using an orthogonal method and to get information about the kinetics of the GPCR–PDZ interactions, we used SPR. This label-free, surface sensitive technique measures the binding of a ligand to an immobilized protein as a function of time based on refractive index changes.
(§2) For each of the PSD-95 PDZ domains, we determined the K d and the stability of the complexes for selected GPCR C-tail peptides. The residence time τ ( = 1/k d) was used as a convenient measure of the stability of the complexes. […] The K d determined from the steady-state responses of a range of C-tail peptide concentrations (Figure 2B and Table S4) correlated well with the K i values obtained by FP (Figure S1).
A Biacore X100 (GE Healthcare) SPR instrument equilibrated to 25.0°C and equipped with a Sensor Chip CM5 (for PDZ1 and PDZ2) or CM4 (for PDZ3) (GE Healthcare) was used for the SPR measurements. The running buffer was HBS-EP+ (10 mM HEPES pH 7.4, 150 mM NaCl, 3 mM EDTA, 0.05% Surfactant P-20 (GE Healthcare)).
PDZ domains were immobilized by amine coupling at a flow rate of 5 µl/min on a surface activated by a 7 min injection of a 1∶1 mixture of 0.4 M 1-ethyl-3-(3-dimethylaminopropyl) carbodiimide (EDC) and 0.1 M N-hydroxysuccinimide (NHS). The remaining active groups were deactivated by a 7 min injection of 1 M ethanolamine HCl pH 8.5. 750 RU PDZ1, 780 RU PDZ2, and 410 RU PDZ3 were immobilized.
GPCR C-tail peptide samples were injected in increasing concentrations for 1 min with 1 min dissociation time at 30 µl/min. Reproducibility was tested by injecting the 20 µM sample again after the highest concentration sample. The binding curves were corrected by subtraction of buffer blanks and the response from a reference surface that was activated with EDC and NHS and deactivated with ethanolamine like the surface with immobilized PDZ domain. For peptides with a cysteine, 1 mM dithiothreitol (DTT) was added to the samples. Steady-state response curves were plotted from the responses 10 s before injection end. The K d was determined by fitting steady-state response curves to a 1∶1 binding model with a linear component to corrrect for low affinity binding, probably resulting from the immobilization: Y = Ymax × X/(X+K d)+B × X.

Another test deals with T2, PSD-95 PDZ2 (Homo sapiens, UniProt P78352).
T2 construct: PDZ2 (aa 155–249); made in house; host or cells: E. coli One Shot BL21 Star (DE3)
Put plainly: SPR steady-state binding to immobilized PSD-95 PDZ2.
Excerpt: as §1, §2
(§3) A Biacore X100 (GE Healthcare) SPR instrument equilibrated to 25.0°C and equipped with a Sensor Chip CM5 (for PDZ1 and PDZ2) or CM4 (for PDZ3) (GE Healthcare) was used for the SPR measurements. The running buffer was HBS-EP+ (10 mM HEPES pH 7.4, 150 mM NaCl, 3 mM EDTA, 0.05% Surfactant P-20 (GE Healthcare)). […]
(§4) GPCR C-tail peptide samples were injected in increasing concentrations for 1 min with 1 min dissociation time at 30 µl/min. […] The K d was determined by fitting steady-state response curves to a 1∶1 binding model with a linear component to corrrect for low affinity binding, probably resulting from the immobilization: Y = Ymax × X/(X+K d)+B × X.

For another test, the system named is PSD-95. Put plainly: FP competition assay, PSD-95 PDZ domains overall (strongest binding domain / non-binders). Particulars: FP competition with the isolated PDZ domains, peptide typically 1–512 µM. The method, then:
We used a competition set-up, where a constant concentration of isolated PSD-95 PDZ domain and a labeled reference ligand was titrated with unlabeled peptides from the GPCR C-tail library, typically within a 1–512 µM concentration range, and the resulting curves were fitted to obtain the IC50, which was used to calculate the K i (Figure 1). Three Cy5-labeled peptides with well-documented interactions with PSD-95 were used as reference ligands for the competition assay: Cy5-KIF1Bα was used for PDZ1 [20], Cy5-GluN2B (formerly known as NR2B) was used for PDZ2 and PDZ1-2 [21], and Cy5-CRIPT was used for PDZ3 [22] (Table S1). Competition with unlabeled versions of the reference ligands was used to validate the FP assay by comparison with the literature (Table S2).
FP measurements were performed in black, flat bottom 384-well NBS microplates (Corning) on a Synergy H4 microplatereader (BioTek Instruments) equipped with a 620/40 nm excitation filter, a 680/30 nm emission filter, and a 660 nm dichroic mirror. Polarization values were corrected with blank samples and samples with fluorescent probe alone. At least 10 data points were measured for each curve, and each data point was measured in triplicate. 25 nM Cy5-labeled probe was used for each assay: Cy5-KIF1Bα for PDZ1, Cy5-GluN2B for PDZ2 and PDZ1-2, and Cy5-CRIPT for PDZ3. All FP measurements were performed in a buffer containing 10 mM HEPES pH 7.4, 150 mM NaCl, and 1% BSA and incubated at least 15 min at room temperature before reading. The signal was stable for more than an hour, showing that the reaction was at equilibrium.
For the competition binding curves, probe was mixed with a constant concentration of PDZ protein corresponding to the K d and a twofold dilution series of unlabeled peptide in a total volume of 30 µl. The baseline was determined using a sample containing only probe. The IC50 was determined by fitting to a 1∶1 binding model: Y = Ymax − Ymax × X/(X+IC50). The K i was calculated from the IC50 and from the K d for the interaction between the PDZ protein and the probe as described previously.

The test system of a further test is PSD-95 PDZ domains. Put plainly: Time-resolved SPR, PSD-95 PDZ domains (kinetics). Type of test: binding. Particulars: 500 µM C-tail peptide, all three PDZ domains.
Excerpt: as §2
For all combinations of PDZ domains and GPCR C-tail peptides, we observed dissociation of the complexes within the first second of the dissociation phase (Figure 2A) (faster than the time-resolution of the instrument), meaning that τ is less than 1 s (k d >1 s^−1). This implies that the GPCR–PDZ complexes are very transient, which is in agreement with previous work.
A Biacore X100 (GE Healthcare) SPR instrument equilibrated to 25.0°C and equipped with a Sensor Chip CM5 (for PDZ1 and PDZ2) or CM4 (for PDZ3) (GE Healthcare) was used for the SPR measurements. […]
as §4

The target of another test is T3, PSD-95 PDZ3 (Homo sapiens, UniProt P78352).
T3 construct: made in house; host or cells: E. coli One Shot BL21 Star (DE3)
Briefly: SPR steady-state binding to immobilized PSD-95 PDZ3.
Excerpt: as §1, §2, §3, §4

In general, Kd refers to the constant that tells how readily two partners part at equilibrium. The low end stands for tighter binding, the high end for weaker binding.

Peptide text beside a SMILES is read from it.

As for `CC[C@H](C)[C@H](NC(=O)[C@H](CO)NC(=O)[C@H](CO)NC(=O)[C@H](CCC(=O)O)NC(=O)[C@@H](NC(=O)[C@H](Cc1c[nH]c2ccccc12)NC(=O)[C@H](C)NC(=O)[C@H](CCCNC(=N)N)NC(=O)[C@H](CCCNC(=N)N)NC(=O)[C@H](CC(=O)O)NC(=O)[C@@H](N)CC(=O)O)[C@@H](C)O)C(=O)N[C@@H](CC(N)=O)C(=O)N[C@H](C(=O)O)[C@@H](C)O` (H-DDRRAWTESSINT-OH; N-terminus assumed), the equilibrium dissociation constant (Kd) on PSD-95 PDZ1, on PSD-95 PDZ2 and at PSD-95 PDZ3 was > 1000 µM in each case. The “Interaction with PSD-95 using fluorescence polarization” value in the test on PSD-95 is on record as “not to interact”. The “Time-resolved binding to PSD-95 PDZ1, PDZ2 and PDZ3 by SPR” value in the test with PSD-95 PDZ domains is reported as “did not interact”.

The record behind these values is PMC3653948, “PDZ Domain-Mediated Interactions of G Protein-Coupled Receptors with Postsynaptic Density Protein 95: Quantitative Characterization of Interactions” (PLoS ONE, 2013).
